As a reminder, the IC50 is the point on the concentration scale where inhibition reaches its midpoint. The term Ki denotes the equilibrium dissociation constant of an inhibitor or competing ligand from its target. A lower Ki goes with tighter binding.

Target in the first assay: not listed separately
The assay is described as follows: Inhibition of yeast alpha-glucosidase using p-nitrophenyl-alpha-d-glucopyranoside as substrate preincubated with enzyme followed by substrate addition measured after 30 mins. The arrangement: species or system Saccharomyces cerevisiae.
The compound `CC1=NN(c2ccc(C)cc2)C(=O)/C1=C/c1cn(-c2ccccc2)nc1-c1cc2ccccc2oc1=O` had an IC50 of 2.1 to 289 µM. Same read-out and setting: the figure for `CC1=NN(c2ccc([N+](=O)[O-])cc2)C(=O)/C1=C/c1cn(-c2ccccc2)nc1-c1cc2ccccc2oc1=O` is 2.1 to 289 µM; for `CC1=NN(c2ccccc2)C(=O)/C1=C/c1cn(-c2ccccc2)nc1-c1cc2cc(Br)ccc2oc1=O` it is 2.1 to 289 µM; for `CC1=NN(c2ccc([N+](=O)[O-])cc2)C(=O)/C1=C/c1cn(-c2ccccc2)nc1-c1ccc(-c2ccccc2)cc1` it is 2.1 to 289 µM.

As for `O=C1/C(=C/c2cn(-c3ccccc3)nc2-c2cc3ccccc3oc2=O)C(c2ccccc2)=NN1c1ccccc1`, the IC50 lay in the range of 2.1 to 289 µM. For the compound `CC1=NN(c2ccccc2)C(=O)/C1=C/c1cn(-c2ccccc2)nc1-c1ccc(-c2ccccc2)cc1`, the IC50 lay in the range of 2.1 to 289 µM. On the same count and under the same terms, for `O=C1/C(=C/c2cn(-c3ccccc3)nc2-c2cc3cc(Br)ccc3oc2=O)C(c2ccccc2)=NN1c1ccccc1` the value was 2.1 to 289 µM. On the same count and under the same terms, for `CC1=NN(c2ccccc2)C(=O)/C1=C/c1cn(-c2ccccc2)nc1-c1cc2ccccc2oc1=O` the value was 2.1 to 289 µM; for `CC1=NN(c2ccc(C)cc2)C(=O)/C1=C/c1cn(-c2ccccc2)nc1-c1cc2cc(Br)ccc2oc1=O`, 2.1 to 289 µM; for `CC1=NN(c2ccc([N+](=O)[O-])cc2)C(=O)/C1=C/c1cn(-c2ccccc2)nc1-c1cc2cc(Br)ccc2oc1=O`, 2.1 µM. Consider `CC1=NN(c2ccc(C)cc2)C(=O)/C1=C/c1cn(-c2ccccc2)nc1-c1ccc(-c2ccccc2)cc1`, for which the IC50 lay in the range of 2.1 to 289 µM.

Another assay deals with T1, Alpha glucosidase (Homo sapiens, UniProt O43451+P10253+P14410+Q2M2H8). Briefly: Inhibition of alpha-glucosidase (unknown origin) using pNPG as substrate preincubated for 15 mins followed by substrate addition. Format: protein assay.
Regarding `Cc1cccc2nc(-c3ccccc3Cl)[nH]c12`, the IC50 worked out at 5.3 µM.

Tested on in a further assay: not listed separately
The assay is described as follows: Inhibition of urease (unknown origin) assessed as reduction in ammonia production using urea as substrate after 15 mins by indophenol method.
As to `Oc1ccc(-c2nc3ccc(Br)cc3[nH]2)cc1`, the IC50 is 8.3 µM.

Target in a further assay: not listed separately
Briefly: Inhibition of yeast alpha-glucosidase. Details: species or system Saccharomyces cerevisiae.
In turn, `COc1ccc(/C=C/C(=O)C2=C(/C=C/c3ccc(OC)c(O)c3)Oc3[nH]c(=O)[nH]c(=O)c3C2c2cc3ccccc3[nH]2)cc1O` (stereo not given) came in with an IC50 of 97 to 119 µM. Compound `COc1ccc(/C=C/C(=O)C2=C(/C=C/c3ccc(OC)c(O)c3)Oc3[nH]c(=O)[nH]c(=O)c3C2c2ccccc2)cc1O` (stereo not given) came in with an IC50 of 97 to 119 µM.

`COc1ccc(/C=C/C(=O)C2=C(/C=C/c3ccc(OC)c(O)c3)Oc3[nH]c(=O)[nH]c(=O)c3C2c2ccc(Cl)cc2)cc1O` (stereo not given): the IC50 is 97 to 119 µM. `COc1ccc(/C=C/C(=O)C2=C(/C=C/c3ccc(OC)c(O)c3)Oc3[nH]c(=O)[nH]c(=O)c3C2c2cccc([N+](=O)[O-])c2)cc1O` (stereo not given): the IC50 was 97 to 119 µM.

Target in a further assay: not listed separately
The assay is described as follows: Inhibition of mouse alpha-glucosidase.
As for `COc1ccc(/C=C/C(=O)C2=C(/C=C/c3ccc(OC)c(O)c3)Oc3[nH]c(=O)[nH]c(=O)c3C2c2cc3ccccc3[nH]2)cc1O` (stereo not given), the IC50 was in the range of 98 to 413 µM. Same read-out and setting: for `COc1ccc(/C=C/C(=O)C2=C(/C=C/c3ccc(OC)c(O)c3)Oc3[nH]c(=O)[nH]c(=O)c3C2c2ccccc2)cc1O` (stereo not given) the value was 98 to 413 µM.

For `COc1ccc(/C=C/C(=O)C2=C(/C=C/c3ccc(OC)c(O)c3)Oc3[nH]c(=O)[nH]c(=O)c3C2c2ccc(Cl)cc2)cc1O` (stereo not given), the IC50 was 98 to 413 µM. `COc1ccc(/C=C/C(=O)C2=C(/C=C/c3ccc(OC)c(O)c3)Oc3[nH]c(=O)[nH]c(=O)c3C2c2cccc([N+](=O)[O-])c2)cc1O` (stereo not given): the IC50 lay in the range of 98 to 413 µM.

Another assay addresses T1, Alpha glucosidase. The assay is described as follows: Inhibition of alpha-glucosidase (unknown origin) using p-nitrophenyl-alpha-d-glucopyranoside as substrate preincubated for 30 mins followed by substrate addition measured for 60 secs by spectrophotometric analysis. Type of assay: protein assay.
For the compound `Oc1ccc(Br)cc1-c1nc2cc(Cl)ccc2s1`, the IC50 is 22 µM.

In the case of `C(=N\Nc1nc(-c2ccc(-c3ccccc3)cc2)cs1)/c1cccc2ccccc12`, the IC50 was 6.2 µM.

Target in the next assay: not listed separately
The assay is described as follows: Inhibition of yeast alpha-glucosidase using p-nitrophenyl-alpha-d-glucopyranoside as substrate preincubated with enzyme followed by substrate addition measured after 30 mins by spectrophotometric analysis. The arrangement: species or system Saccharomyces cerevisiae.
Regarding `O=C(CCCSc1nc2ccccc2s1)Nc1cccc2ccccc12`, half-maximal inhibition (IC50) required 10 µM.

The target of the next assay is T1, Alpha glucosidase. The assay is described as follows: Inhibition of alpha-glucosidase (unknown origin) using p-nitrophenyl-alpha-d-glucopyranoside as substrate preincubated for 30 mins followed by substrate addition measured after 60 mins. Format: protein assay.
`Clc1ccc(/N=c2\scc(-c3ccc(Cl)cc3)n2Nc2ccccc2)cc1` gave an IC50 of 9.6 µM.

The next assay concerns the target T1, Alpha glucosidase. Briefly: Inhibition of alpha-glucosidase (unknown origin) using p-nitrophenyl-alpha-d-glucopyranoside as substrate preincubated for 5 mins followed by substrate addition measured after 30 mins. Format: protein assay.
Turning to `Cc1ccccc1C(=O)/N=c1\scc(C)n1-c1cc(Cl)c(Cl)cc1Cl`, the IC50 came out at 0.15 µM. Same read-out and setting: the figure for `Cc1cs/c(=N\C(=O)c2cccc3ccccc23)n1-c1cc(Cl)c(Cl)cc1Cl` is 0.15 µM.

For another assay, the target named is T1, Alpha glucosidase. Briefly: Potency index, ratio of acarbose IC50 to compound IC50 for inhibition of alpha-glucosidase (unknown origin) using p-nitrophenyl-alpha-d-glucopyranoside as substrate preincubated for 5 mins followed by substrate addition measured after 30 mins. Type of assay: protein assay.
As for `Cc1ccccc1C(=O)/N=c1\scc(C)n1-c1cc(Cl)c(Cl)cc1Cl`, the Ratio IC50 turned out to be 255.

Turning to `Cc1cs/c(=N\C(=O)c2cccc3ccccc23)n1-c1cc(Cl)c(Cl)cc1Cl`, the Ratio IC50 stood at 255.

The next assay has as its target T1, Alpha glucosidase. The assay is described as follows: Inhibition of alpha-glucosidase (unknown origin) using p-nitro phenyl glucopyranoside as substrate preincubated for 10 mins followed by substrate addition measured after 10 mins. Format: protein assay.
The compound `O=C1NC(=O)/C(=C\c2ccc(-n3cnc4ccccc43)cc2)S1` showed an IC50 of 0.55 to 35 µM. `Cc1nccn1-c1ccc(/C=C2/SC(=O)NC2=O)cc1` registered an IC50 of 0.55 to 35 µM. On the same count and under the same terms, the figure for `O=C(O)CN1C(=O)S/C(=C/c2ccc(-n3ccc4c(Br)ccnc43)cc2)C1=O` is 0.55 to 35 µM; for `O=C1NC(=O)/C(=C\c2ccc(-n3cc([N+](=O)[O-])cn3)cc2)S1` it is 0.55 to 35 µM; for `O=C1NC(=O)/C(=C\c2ccc(-n3ccc4c(Nc5ccccc5OC(F)(F)F)ccnc43)cc2)S1` it is 0.55 to 35 µM. The compound `O=C1NC(=O)/C(=C\c2ccc(-n3ncc4ccccc43)cc2)S1` gave an IC50 of 0.55 to 35 µM.

Compound `O=C1NC(=O)/C(=C\c2ccc(-n3ccc4c(Nc5ccc(F)cc5)ccnc43)cc2)S1` registered an IC50 of 0.55 to 35 µM. Still for that read-out and setting: the figure for `O=C1NC(=O)/C(=C\c2ccc(-n3ccc4c(Br)ccnc43)cc2)S1` is 0.55 to 35 µM; for `CCOC(=O)CN1C(=O)S/C(=C/c2ccc(-n3ccc4c(Br)ccnc43)cc2)C1=O` it is 0.55 µM.

For the next assay, the target named is T2, Alpha amylase (Homo sapiens, UniProt P0DUB6).
T2 sequence (P0DUB6 whole entry): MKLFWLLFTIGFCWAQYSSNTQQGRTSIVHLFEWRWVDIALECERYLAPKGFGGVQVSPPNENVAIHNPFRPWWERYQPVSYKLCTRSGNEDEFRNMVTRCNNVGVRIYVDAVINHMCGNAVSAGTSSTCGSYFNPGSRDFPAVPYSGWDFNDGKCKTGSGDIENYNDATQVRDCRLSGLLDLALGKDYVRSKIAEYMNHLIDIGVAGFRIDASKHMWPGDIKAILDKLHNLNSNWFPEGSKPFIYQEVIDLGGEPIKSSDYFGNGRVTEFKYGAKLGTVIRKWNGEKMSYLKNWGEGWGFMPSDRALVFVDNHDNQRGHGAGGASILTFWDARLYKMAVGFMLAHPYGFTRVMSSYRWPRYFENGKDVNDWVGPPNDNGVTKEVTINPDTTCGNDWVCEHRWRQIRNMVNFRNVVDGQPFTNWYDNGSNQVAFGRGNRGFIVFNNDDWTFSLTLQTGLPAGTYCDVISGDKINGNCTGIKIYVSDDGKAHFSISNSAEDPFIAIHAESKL
The assay is described as follows: Inhibition of alpha-amylase (unknown origin) using p-nitro phenyl glucopyranoside as substrate preincubated for 10 mins followed by substrate addition measured after 10 mins.
On to `CCOC(=O)CN1C(=O)S/C(=C/c2ccc(-n3ccc4c(Br)ccnc43)cc2)C1=O`, for which the IC50 is 0.85 µM.

The next assay deals with T1, Alpha glucosidase. The assay is described as follows: Inhibition of alpha-glucosidase (unknown origin) using p-nitro phenyl glucopyranoside as substrate preincubated for 10 mins followed by substrate addition measured after 30 mins. Type of assay: protein assay.
Take `O=C(N/N=C/c1cc(Cl)cc(Cl)c1O)c1nc(-c2cc3ccccc3oc2=O)cs1`: the IC50 turned out to be 6.2 µM.

Another assay addresses T1, Alpha glucosidase. Briefly: Non-competitive inhibition of alpha-glucosidase (unknown origin) using p-nitro phenyl glucopyranoside as substrate preincubated for 10 mins followed by substrate addition measured after 30 mins. Type of assay: protein assay.
`O=C(N/N=C/c1cc(Cl)cc(Cl)c1O)c1nc(-c2cc3ccccc3oc2=O)cs1` yielded a Ki of 6.8 µM.

Another assay deals with T1, Alpha glucosidase. The assay is described as follows: Inhibition of alpha-glucosidase (unknown origin) using p-nitro phenyl glucopyranoside as substrate preincubated for 5 mins followed by substrate addition measured after 30 mins. Format: protein assay.
In turn, `O=c1oc2ccccc2cc1-c1nn(C(Nc2ccc(Oc3ccc(NC(c4cccc(Br)c4)n4nc(-c5cc6ccccc6oc5=O)oc4=S)cc3)cc2)c2cccc(Br)c2)c(=S)o1` (stereo not given) showed an IC50 of 0.07 µM.

Target in another assay: not listed separately
Briefly: Inhibition of rat intestinal maltase-glucoamylase using p-nitrophenyl alpha-D-glucoside as substrate preincubated for 5 mins followed by substrate addition and measured after 30 mins.
`O=c1oc2ccccc2cc1-c1nn(C(Nc2ccc(Oc3ccc(NC(c4cccc(Br)c4)n4nc(-c5cc6ccccc6oc5=O)oc4=S)cc3)cc2)c2cccc(Br)c2)c(=S)o1` (stereo not given) returned an IC50 of 0.04 µM.

A further assay has as its target T1, Alpha glucosidase. Briefly: Inhibition of alpha-glucosidase (unknown origin) using p-nitrophenyl-alpha-d-glucopyranoside as substrate preincubated for 10 mins followed by substrate addition measured after 20 mins. Type of assay: protein assay.
For `Nc1c(C(c2ccccc2)c2c(N)c3ccccc3oc2=O)c(=O)oc2ccccc12`, the IC50 is 20 to 180 µM. On to `COc1cc(C(c2c(N)c3ccccc3oc2=O)c2c(N)c3ccccc3oc2=O)cc(Br)c1O`, for which the IC50 lay within 20 to 180 µM.

With `Nc1c(C(c2ccc(O)cc2)c2c(N)c3ccccc3oc2=O)c(=O)oc2ccccc12`, the IC50 is 20 to 180 µM.

For the compound `COc1cccc(C(c2c(N)c3ccccc3oc2=O)c2c(N)c3ccccc3oc2=O)c1`, the IC50 lay in the range of 20 to 180 µM. Still for that read-out and setting: for `Nc1c(C(c2ccccc2F)c2c(N)c3ccccc3oc2=O)c(=O)oc2ccccc12` the value was 20 to 180 µM. On the same count and under the same terms, the figure for `COc1cc(C(c2c(N)c3ccccc3oc2=O)c2c(N)c3ccccc3oc2=O)cc(Cl)c1O` is 20 to 180 µM. Still for that read-out and setting: for `Nc1c(C(c2cccc(Cl)c2)c2c(N)c3ccccc3oc2=O)c(=O)oc2ccccc12` the value was 20 to 180 µM; for `Nc1c(C(c2cccc(F)c2)c2c(N)c3ccccc3oc2=O)c(=O)oc2ccccc12`, 20 to 180 µM.

Compound `Nc1c(C(c2ccccc2Cl)c2c(N)c3ccccc3oc2=O)c(=O)oc2ccccc12` returned an IC50 of 20 to 180 µM. Still for that read-out and setting: for `Nc1c(C(c2cccc(Br)c2)c2c(N)c3ccccc3oc2=O)c(=O)oc2ccccc12` the value was 20 to 180 µM; for `Cc1ccc(C(c2c(N)c3ccccc3oc2=O)c2c(N)c3ccccc3oc2=O)cc1`, 20 µM.

For a further assay, the target named is T1, Alpha glucosidase. Briefly: Competitive inhibition of alpha-glucosidase (unknown origin) using p-nitrophenyl-alpha-d-glucopyranoside as substrate preincubated for 10 mins followed by substrate addition measured after 20 mins. Format: protein assay.
In turn, `Cc1ccc(C(c2c(N)c3ccccc3oc2=O)c2c(N)c3ccccc3oc2=O)cc1` displayed a Ki of 22 µM.

For the origin of these results see ChEMBL document CHEMBL4304757, “Synthetic heterocyclic candidates as promising α-glucosidase inhibitors: An overview” (Eur J Med Chem, 2019).
